These results are taken from patent publication US9677052B2, “Modified lipopolysaccharide glycoform and method of use” (THE TRUSTEES OF PRINCETON UNIVERSITY, priority 2014, dated 2017).

Test [1] is described as follows: Surface plasmon resonance, vancomycin over reference channel (LPS from waaL+). The test is classed as binding, Escherichia coli. The settings on record: SPR, 25° C., different concentrations of vancomycin. The procedure:
Purified LPS (0.5 mg/ml) from strains MG1210 or MG1211 were extruded in 20 mMTris/HCl pH 8, 150 mM NaCl and immobilized on poly-L-lysine coated CM3 Biacore chips on the active and reference channel, respectively (Malojcić et al., 2014). All experiments were performed using a Biacore X100 instrument at 25° C. at a flow rate of 10 μl/min with 20 mMTris/HCl pH 8, 150 mM NaCl buffer. Different concentrations of vancomycin were injected for 400 s and dissociation was recorded for another 500 s to return to baseline. […] The equilibrium signal in the difference channel was fitted to f=Bmax*abs(x)/(Kd+abs(x)) with R^2=0.88.

A short description of test [2]: Surface plasmon resonance, vancomycin over immobilized purified LPS*. Further details: species or system Escherichia coli. The settings on record: SPR, Biacore X100, 25° C., LPS* immobilized on CM3 chip, equilibrium signal fit; read-out: Kd, specific binding of vancomycin to LPS*. As to the method:
(§1) The ability of purified LPS* to bind vancomycin in vitro was assessed. LPS* was immobilized on a carboxymethylated dextran (CM3) chip and surface plasmon resonance was used to monitor interactions with differing concentrations of vancomycin. […] To test this hypothesis, weperformed live cell microscopy using a fluorescent vancomycin-BODIPY. A wild-type strain background with an intact OM that prevents the influx of vancomycin was used, to avoid labeling intracellular sites of PG synthesis.

A further test relates to waaL+ cells. As to conditions: 1 μg/ml vancomycin-BODIPY-FL, 10 min, wild-type background with intact OM. As to the method: (§2) Overnight cultures were sub-cultured at 1:100 into fresh LB broth and grown for 1.5 h. A1 ml aliquot was taken, pelleted and was twice washed with 1 ml M63 medium. Cells were resuspended in 0.1 ml of M63 broth containing 1 μg/ml of vancomycin-BODIPY-FL (LifeTechnologies, V-34850). Cells were incubated at room temperature for 10 min and then washed twice with 1 ml M63 broth. Cells were then resuspended in 0.03 ml of M63 broth, and approximately […] was spotted onto an M63-agarose pad. Cells were immediately visualized on a Nikon Eclipse 90i microscope with a Nikon Plan Apo 1.4/100× Oil Ph3 phase objective.
as §1

Another test concerns waaL15 bacteria. As to conditions: 1 μg/ml vancomycin-BODIPY-FL, 10 min, wild-type background with intact OM. As to the method: as §2, §1

Regarding `CN[C@H](CC(C)C)C(=O)N[C@H]1C(=O)N[C@@H](CC(N)=O)C(=O)N[C@H]2C(=O)N[C@H]3C(=O)N[C@H](C(=O)N[C@H](C(=O)O)c4cc(O)cc(O)c4-c4cc3ccc4O)[C@H](O)c3ccc(c(Cl)c3)Oc3cc2cc(c3O[C@@H]2O[C@H](CO)[C@@H](O)[C@H](O)[C@H]2O[C@H]2C[C@](C)(N)[C@H](O)[C@H](C)O2)Oc2ccc(cc2Cl)[C@H]1O` [vancomycin], the “binding to the reference channel” value in test [1] is listed as “No binding”. Besides, in test [2], the Kd worked out at 480 ± 80 nM.
Turning to vancomycin-BODIPY-FL, the results for the “fluorescent labeling of cells” value with waaL+ cells and in the test with waaL15 bacteria were “could not be fluorescently labeled” and “circumferential labeling”, respectively.
